Source: US4294842A, “Anti-protozoal oxadiazole derivatives” (Burroughs Wellcome Co., priority 1978, dated 1981)

Key:
[1] = tested on: P. berghei; test: Inhibition of P. berghei blood parasitaemia in infected mice (oral); assay type: in vivo; conditions: Plasmodium berghei, 96 h, read-out: Percentage Inhibitions of P. berghei; for inhibition in vivo at 100 mg/kg: 7 × 100 mg/kg, parasitaemia on fourth day vs untreated controls; for inhibition in vivo at 50 mg/kg: 7 × 50 mg/kg
From the text: Groups of five mice were inoculated intraperitoneally with the normal strain of P. berghei. The mice on test received seven oral doses of drug begining on the afternoon of the day of infection then twice a day for the following three days. Blood parasitaemias were estimated on the fourth day and compared with those of the untreated controls.
The results are given in Table 1, the results being expressed as percentage inhibition of P.berghei.

[2] = Oral LD50 in mice; conditions: mouse, in vivo, suspension in 0.25% Celacol
Procedure: The LD50 of the compound of Example 4 was determined in mice by conventional methods, the compound being administered orally as a suspension in 0.25% Celacol.

[3] = tested on: Eimeria tenella; test: Inhibition of Eimeria tenella in monolayer cultures of chick embryo liver cells; assay type: cell-based; conditions: fixed 90 hours after infection, scale 0 to 4
Procedure: Monolayer cultures of chick embryo liver cells were seeded onto microtitration plates and treated with the test compound (formulated by suspension in ethanol (0.05 ml) followed by dilution with sterile water (0.95 ml). Sporozoites of Eimeria tenella in culture medium were added and the culture fixed 90 hours after infection. The percentage inhibition compared to controls was determined, the results being expressed on a sacle of 0(0-10% inhibition) to 4(91-100% inhibition). The results are given in Table 2.

[4] = tested on: Eimeria tenella; test: Index of inhibition, 400ppm in vivo (Table 2); conditions: scale 0 to 4

SMILES | inhibition in vivo at 100 mg/kg [1] | Index of Inhibition ([3]; 20μg/ml) | other results
Cc1ccc(SCc2ncon2)cc1 [Example 1, 3-(4-Methylphenylthiomethyl)-1,2,4-oxadiazole] | 38% |  | 
Brc1ccc(SCc2ncon2)cc1 [Example 3, 3-(4-Bromophenylthiomethyl)-1,2,4-oxadiazole] | 71% |  | 
c1ccc(SCc2ncon2)cc1 [Example 4, 3-Phenylthiomethyl-1,2,4-oxadiazole] | 49% |  | LD50 [2]: ~1600 mg/kg
Brc1ccccc1SCc1ncon1 [Example 5, 3-(2-Bromophenylthiomethyl)-1,2,4-oxadiazole] |  | 1 | inhibition in vivo at 80 mg/kg ([1]; 7 × 80 mg/kg): 2%
COc1ccccc1SCc1ncon1 [Example 6, 3-(2-Methoxyphenylthiomethyl)-1,2,4-oxadiazole] |  |  | inhibition in vivo at 50 mg/kg [1]: 5%
c1ccc(Sc2cccc(SCc3ncon3)c2)cc1 [Example 7, 3-(3-Phenylthiophenylthiomethyl)-1,2,4-oxadiazole] | 2% | 1 | 
Cc1cccc(SCc2ncon2)c1 [Example 8, 3-(3-Methylphenylthiomethyl)-1,2,4-oxadiazole] |  | 3 | 
Nc1cccc(SCc2ncon2)c1 [Example 9, 3-(3-Aminophenylthiomethyl)-1,2,4-oxadiazole] | 34% | 2 | 
COc1cccc(SCc2ncon2)c1 [Example 10, 3-(3-Methoxyphenylthiomethyl)-1,2,4-oxadiazole] |  |  | Index of Inhibition ([3]; 5μg/ml): 4 (91-100% inhibition)
O=[N+]([O-])c1ccc(SCc2ncon2)cc1 [Example 12, 3-(4-Nitrophenylthiomethyl)-1,2,4-oxadiazole] | 14% | 4 (91-100% inhibition) | 
COc1ccc(SCc2ncon2)cc1 [Example 13, 3-(4-Methoxyphenylthiomethyl)-1,2,4-oxadiazole] |  | 2 | 
Nc1ccc(SCc2ncon2)cc1 [Example 14, 3-(4-Aminophenylthiomethyl)-1,2,4-oxadiazole] | 41% | 2 | 
Fc1ccc(SCc2ncon2)cc1 [Example 15, 3-(4-Fluorophenylthiomethyl)-1,2,4-oxadiazole] |  | 3 | inhibition in vivo at 50 mg/kg [1]: 59%
CSc1ccc(SCc2ncon2)cc1 [Example 16, 3-(4-Methylthiophenylthiomethyl)-1,2,4-oxadiazole] | 4% | 2 | 
Cc1cccc(SCc2ncon2)c1C [Example 17, 3-(2,3-Dimethylphenylthiomethyl)-1,2,4-oxadiazole] | 62% | 2 | 
Cc1ccc(SCc2ncon2)c(C)c1 [Example 18, 3-(2,4-Dimethylphenylthiomethyl)-1,2,4-oxadiazole] | 14% | 2 | 
c1ccc2c(SCc3ncon3)cccc2c1 [Example 19, 3-(1-Naphthylthiomethyl)-1,2,4-oxadiazole] |  |  | inhibition in vivo at 50 mg/kg [1]: 55%
Clc1ccc(SCc2ncon2)cc1Cl [Example 20, 3-(3,4-Dichlorophenylthiomethyl)-1,2,4-oxadiazole] |  | 3 | 

SMILES | inhibition in vivo at 100 mg/kg [1] | Index of Inhibition ([3]; 20μg/ml) | other results
Clc1cc(Cl)c(SCc2ncon2)cc1Cl [Example 21, 3-(2,4-5-Trichlorophenylthiomethyl)-1,2,4-oxadiazole] | 19% | 4 (91-100% inhibition) | inhibition in vivo at 20 mg/kg ([1]; 7 × 20 mg/kg): 18%
Cc1nc(CSc2ccc(Br)cc2)no1 [Example 22, 3-(4-Bromophenylthiomethyl)-5-methyl-1,2,4-oxadiazole] | 46% | 2 | 
Cc1nc(CSc2cccc(C)c2C)no1 [Example 23, 3-(2,3-Dimethylphenylthiomethyl)-5-methyl-1,2,4-oxadiazole] |  | 3 | 
Cc1nc(CSc2ccc([N+](=O)[O-])cc2)no1 [Example 24, 3-(4-Nitrophenylthiomethyl)-5-methyl-1,2,4-oxadiazole] |  | 2 | 
Cc1nc(CSc2ccc(Cl)cc2)no1 [Example 25, 3-(4-Chlorophenylthiomethyl)-5-methyl-1,2,4-oxadiazole] |  | 2 | 
Brc1ccc(SCc2noc(CSc3ccc(Br)cc3)n2)cc1 [Example 26, 3,5-Di-(4-bromophenylthiomethyl)-1,2,4-oxadiazole] | 99% | 2 | 
Clc1ccc(SCc2noc(CSc3ccc(Cl)cc3)n2)cc1 [Example 27, 3,5-Di-(4-chlorophenylthiomethyl)1,2,4-oxadiazole] | 47% |  | 
Oc1ccccc1SCc1ncon1 [Example 29, 3-(2-Hydroxyphenylthiomethyl)-1,2,4-oxadiazole] | 23% |  | 
FC(F)(F)c1cccc(SCc2ncon2)c1 [Example 31, 3-(3-Trifluoromethylphenylthiomethyl)-1,2,4-oxadiazole] |  | 4 (91-100% inhibition) | 
CCCCc1ccc(SCc2ncon2)cc1 [Example 32, 3-(4-n-Butylphenylthiomethyl)-1,2,4-oxadiazole] |  | 2 | 
CN(C)c1ccc(SCc2ncon2)cc1 [Example 33, 3-(4-N,N-Dimethylaminophenylthiomethyl)-1,2,4-oxadiazole] | 19% |  | 
CC(C)(C)c1ccc(SCc2ncon2)cc1 [Example 34, 3-(4-t-Butylphenylthiomethyl)-1,2,4-oxadiazole] | 28% |  | 
Clc1ccc(SCc2ncon2)cc1 [Example 36, 3-(4-Chlorophenylthiomethyl)-1,2,4-oxadiazole] |  |  | Index of Inhibition [4]: 4 (91-100% inhibition)
Cc1ccc(Br)c(SCc2ncon2)c1 [Example 37, 3-(2-Bromo-5-methylphenylthiomethyl)-1,2,4-oxadiazole] |  | 3 | Index of Inhibition ([3]; 5μg/ml): 2
c1ccc2cc(SCc3ncon3)ccc2c1 [Example 38, 3-(2-Naphthylthiomethyl)-1,2,4-oxadiazole] | 21% |  | 
Nc1ccccc1SCc1nc(CSc2ccc(Cl)cc2)no1 [Example 40, 5-(2-aminophenylthiomethyl)-3-(4-chlorophenylthiomethyl)-1,2,4-oxadiazole] | 18% |  | 
Nc1ccc(SCC2=NOCN2)cc1 [Example 44, 3-(4-aminophenylthiomethyl)-4,5-dihydro-1,2,4-oxadiazole] | 10% |  | 
N#CSc1ccc(SCc2ncon2)cc1 [Example 45, 3-(4-Thiocyanatophenylthiomethyl)-1,2,4-oxadiazole] |  |  | inhibition in vivo at 10 mg/kg ([1]; 7 × 10 mg/kg): 34%; Index of Inhibition ([3]; 5μg/ml): 2
